From patent publication US10399964B2, “Coumarin-linked taxanes for detection and circumvention of cellular efflux” (The University of Kansas, priority 2017, dated 2019)
Entries after “also recorded” stand apart in the source; their conditions may differ.

Tests used:
[1] = target: cross-linked microtubules from bovine brain; experiment: Affinity for cross-linked microtubules by fluorescence enhancement; details: GAB buffer (pH 6.5); equilibrium binding curves; excitation 405 nm; read-out: apparent Kd
Experimental: PB was excited at 405 nm and emitted photons were collected at and above 450 nm.
Experiments were conducted to obtain the measured affinities of Compounds 1-3 for cross-linked microtubules from bovine brain using a fluorescence enhancement method (FIG. 2). […] PB was excited at 405 nm and emitted photons were collected at and above 450 nm.

HeLa cells = experiment: Subcellular distribution and colocalization by confocal microscopy in living HeLa cells; format: cell-based; details: for subcellular distribution / colocalization: confocal microscopy, 1 h; for binding to microtubules in cells: HeLa cells transfected with mCherry-tubulin
Experimental: To examine the subcellular distribution of Compound 1, HeLa cells were imaged by confocal laser scanning microscopy (FIGS. 5A, 5B, and 5C). […] The distinct spectral profiles of PB and OG were used to further examine colocalization of Compound 1 and Flutax-2® (FIG. 5C).
The experiment was conducted by 1 hour incubation with HeLa cells, followed by a wash and then imaging using a 25% laser power with excitation at 405 nm and emission at 425-500 nm.
The studies compared the potency as an endoplasmic reticulum probe with commercial ER probe ER Tracker Blue-White DPX. […] Panels A and B used 1 nM of the compounds, Panels A1 and B1 used 10 nM of the compounds, Panels A2 and B2 used 100 nM of the compounds, and Panels A3 and B3 used 1 μM of the compounds.
As such, Compound 2 (PB-β-Ala-Taxol) was compared to iPr-Rhodol-β-Ala-Taxol with HeLa cells transfected with mCherry-tubulin.

P-gp in HeLa cells = P-gp in HeLa cells (Homo sapiens, UniProt P08183); experiment: P-gp efflux: cellular fluorescence with or without verapamil by flow cytometry, HeLa; details: probe 1 μM
P-gp in HCT-15 cells = P-gp in HCT-15 cells (Homo sapiens, UniProt P08183); experiment: P-gp efflux: cellular fluorescence with or without verapamil by flow cytometry, HCT-15; details: probe 1 μM
Experimental: Studies were conducted to investigate the efflux of Compound 1 in HCT-15 cells that express high levels of P-gp. Compound 1 was compared with rhodamine 123 (Rho123), a common P-gp substrate that accumulates in mitochondria.

[2] = system: HeLa cervical carcinoma cells; experiment: Cytotoxicity, cellular viability by flow cytometry, HeLa; details: for IC50 / relative toxicity (cellular viability versus concentration): HeLa cells; for IC50: 48 h; for relative toxicity (cellular viability versus concentration): FIG. 9
Experimental: The cytotoxicity of the taxane PB fluorophores towards HeLa cervical carcinoma cells (FIGS. 4A and 4B) was evaluated. These cell lines were treated for 48 h, cellular viability was analyzed by flow cytometry, and paclitaxel was used as a positive control.
The IC50s were also determined.

HCT-15 cells = experiment: Cytotoxicity, cellular viability by flow cytometry, HCT-15; format: cell-based; details: for IC50: Homo sapiens, HCT-15, 48 h, 48 h
[3] = system: HeLa, Ramos, Raji, HL-60, and Jurkat cell lines; experiment: Uptake into different cell lines by flow cytometry; format: cell-based; details: 1 μM, 1 h, 200,000 cells/200 μL; verapamil 0, 25, 100 μM
Experimental: The uptake of Compound 1 (PB-Gly-Taxol, at 1 μM, 1 h, 200,000 cells/200 μL) by different cell lines was studied and quantified by using flow cytometry.

Sequence of P-gp in HCT-15 cells (P08183 whole entry): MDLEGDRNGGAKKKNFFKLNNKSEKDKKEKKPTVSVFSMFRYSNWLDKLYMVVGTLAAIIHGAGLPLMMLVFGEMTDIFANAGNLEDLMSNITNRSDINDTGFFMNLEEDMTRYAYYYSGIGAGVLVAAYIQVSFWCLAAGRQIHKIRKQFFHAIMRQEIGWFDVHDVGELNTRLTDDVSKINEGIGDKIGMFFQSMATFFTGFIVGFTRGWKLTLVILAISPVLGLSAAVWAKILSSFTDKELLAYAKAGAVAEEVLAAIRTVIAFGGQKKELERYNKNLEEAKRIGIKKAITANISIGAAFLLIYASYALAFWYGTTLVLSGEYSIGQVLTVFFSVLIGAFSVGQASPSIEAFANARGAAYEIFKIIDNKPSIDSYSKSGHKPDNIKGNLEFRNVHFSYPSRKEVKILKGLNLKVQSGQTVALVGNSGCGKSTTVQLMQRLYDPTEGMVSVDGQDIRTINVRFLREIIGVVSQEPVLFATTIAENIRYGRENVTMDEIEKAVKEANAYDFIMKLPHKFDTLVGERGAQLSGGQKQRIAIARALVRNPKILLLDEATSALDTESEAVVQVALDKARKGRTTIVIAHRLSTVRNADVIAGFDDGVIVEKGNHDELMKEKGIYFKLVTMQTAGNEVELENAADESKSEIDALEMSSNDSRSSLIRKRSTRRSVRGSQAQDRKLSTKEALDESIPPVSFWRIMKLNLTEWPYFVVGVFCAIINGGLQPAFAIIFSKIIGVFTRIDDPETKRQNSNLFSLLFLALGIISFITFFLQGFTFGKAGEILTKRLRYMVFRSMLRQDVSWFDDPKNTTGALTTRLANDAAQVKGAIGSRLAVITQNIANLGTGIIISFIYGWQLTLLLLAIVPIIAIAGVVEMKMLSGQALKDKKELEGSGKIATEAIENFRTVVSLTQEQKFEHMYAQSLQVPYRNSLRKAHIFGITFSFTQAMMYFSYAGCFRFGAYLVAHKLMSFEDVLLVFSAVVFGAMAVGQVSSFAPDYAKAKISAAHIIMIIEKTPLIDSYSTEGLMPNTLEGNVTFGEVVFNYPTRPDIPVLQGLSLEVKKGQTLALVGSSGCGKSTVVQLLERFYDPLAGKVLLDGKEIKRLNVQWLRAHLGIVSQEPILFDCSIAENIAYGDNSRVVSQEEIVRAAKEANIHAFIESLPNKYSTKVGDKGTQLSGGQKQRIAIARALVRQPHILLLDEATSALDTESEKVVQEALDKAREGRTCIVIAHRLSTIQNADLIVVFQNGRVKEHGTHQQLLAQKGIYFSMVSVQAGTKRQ
Sequence of P-gp in HeLa cells (P08183 whole entry): as above

## CC(=O)OC1C(=O)C2(C)C(OC(=O)CCCNC(=O)c3cc4cc(F)c(O)c(F)c4oc3=O)CC3OCC3(OC(C)=O)C2C(OC(=O)c2ccccc2)C2(O)CC(OC(=O)C(O)C(NC(=O)c3ccccc3)c3ccccc3)C(C)=C1C2(C)C (stereo not shown) [Compound 3, PB-GABA-Taxol]
[1]
  Kd: 0.265 ± 0.054 µM

## PB-NH2-Gly-Taxol [Compound 22]
HeLa cells; living HeLa cells
  subcellular distribution / colocalization: accumulate in the endoplasmic reticulum

## rhodamine 123 [Rho123]
P-gp in HeLa cells
  detection of low levels of P-gp activity: undetectable
P-gp in HCT-15 cells; verapamil 25 μM
  increase of cellular fluorescence in presence of verapamil: 3 fold
P-gp in HCT-15 cells; verapamil 100 μM
  increase of cellular fluorescence in presence of verapamil: 3 fold

## CC(=O)OC1C(=O)C2(C)C(OC(=O)CCNC(=O)c3cc4cc(F)c(O)c(F)c4oc3=O)CC3OCC3(OC(C)=O)C2C(OC(=O)c2ccccc2)C2(O)CC(OC(=O)C(O)C(NC(=O)c3ccccc3)c3ccccc3)C(C)=C1C2(C)C (stereo not drawn) [Compound 2, PB-β-Ala-Taxol]
[1]
  Kd: 0.063 ± 0.008 µM
HeLa cells
  binding to microtubules in cells: can bind to microtubules better than when paclitaxel is coupled to a different fluorophore

## Flutax-2® [reference compound]
[2]; presence of verapamil (25 μM)
  IC50: 1.31 µM
HeLa cells; living HeLa cells
  subcellular distribution / colocalization: punctate fluorescence that did not co-localize with Compound 1 on microtubules

## CC(=O)OC1C(=O)C2(C)C(OC(=O)CNC(=O)c3cc4cc(F)c(O)c(F)c4oc3=O)CC3OCC3(OC(C)=O)C2C(OC(=O)c2ccccc2)C2(O)CC(OC(=O)C(O)C(NC(=O)c3ccccc3)c3ccccc3)C(C)=C1C2(C)C (stereo not shown) [Compound 1, PB-Gly-Taxol]
HCT-15 cells; with verapamil (25 μM)
  IC50: 0.09 µM
HCT-15 cells; without verapamil
  IC50: 3.7 µM
HCT-15 cells; verapamil 25 μM versus none
  enhancement of toxicity by verapamil: 41 fold
[2]
  relative toxicity (cellular viability versus concentration): less toxic than PB-NHMe-Gly-Taxol (Compound 21); also recorded: less toxic than paclitaxel
[2]; Homo sapiens, HeLa, absence of verapamil
  IC50: 0.12 µM
[2]; Homo sapiens, HeLa, presence of verapamil (25 μM)
  IC50: 0.06 µM
[1]
  Kd: 0.034 ± 0.006 µM
[3]
  effect of verapamil on uptake: the inclusion of verapamil increased the uptake
HeLa cells; living HeLa cells
  subcellular distribution / colocalization: bound microtubules with very high specificity

## CC(=O)O[C@H]1C(=O)[C@@]2(C)C([C@H](OC(=O)c3ccccc3)[C@]3(O)C[C@H](OC(O)[C@H](O)[C@@H](NC(=O)c4ccccc4)c4ccccc4)C(C)=C1C3(C)C)[C@]1(OC(C)=O)CO[C@@H]1C[C@@H]2OC(=O)CCNC(=O)c1ccc(-c2c3cc(F)c(=O)cc-3oc3cc(NC(C)C)c(F)cc23)c(C)c1 (stereo partly drawn) [iPr-Rhodol-β-Ala-Taxol, reference compound]
[2]
  cytotoxicity (in words): without engendering substantial cytotoxicity
HeLa cells
  binding to microtubules in cells: does not bind extensively to microtubules
HeLa cells; living HeLa cells
  subcellular distribution / colocalization: appears to accumulate predominantly in the endoplasmic reticulum

## PB-NHMe-Gly-Taxol [Compound 21]
[2]
  relative toxicity (cellular viability versus concentration): less toxic than paclitaxel
HeLa cells; living HeLa cells, 1 nM to 1 μM, versus ER Tracker Blue-White DPX
  potency as endoplasmic reticulum probe: more potent as an endothelium reticulum probe compared to ER Tracker Blue-White DPX
HeLa cells; living HeLa cells
  subcellular distribution / colocalization: does not appear to colocalize with Flutax-2® on microtubules
HeLa cells; living HeLa cells, listed as PB-NHMe-Gly-Taxol
  subcellular distribution / colocalization: accumulate in the endoplasmic reticulum; also recorded: colocalizes with the red fluorescent endoplasmic reticulum probe HRA
